Like-named read-outs stand apart in the source and are kept apart here.
Legend:
[1] = target: T1, human POR (Homo sapiens, UniProt A0A9L9PY49); test: biochemical; design: POR proteoliposome reduction of cytochrome c, MTT (absorbance) or resazurin (fluorescence), normalized to DMSO control; conditions: Liposomes=Liposomes, electron acceptor as given
T1 construct: full-length wild type in pET22b, expressed in E. coli BL21(DE3); bacterial membranes reconstituted in DLPC/DLPG liposomes without further purification, or used as microsomes
T1 sequence (A0A9L9PY49 1-680): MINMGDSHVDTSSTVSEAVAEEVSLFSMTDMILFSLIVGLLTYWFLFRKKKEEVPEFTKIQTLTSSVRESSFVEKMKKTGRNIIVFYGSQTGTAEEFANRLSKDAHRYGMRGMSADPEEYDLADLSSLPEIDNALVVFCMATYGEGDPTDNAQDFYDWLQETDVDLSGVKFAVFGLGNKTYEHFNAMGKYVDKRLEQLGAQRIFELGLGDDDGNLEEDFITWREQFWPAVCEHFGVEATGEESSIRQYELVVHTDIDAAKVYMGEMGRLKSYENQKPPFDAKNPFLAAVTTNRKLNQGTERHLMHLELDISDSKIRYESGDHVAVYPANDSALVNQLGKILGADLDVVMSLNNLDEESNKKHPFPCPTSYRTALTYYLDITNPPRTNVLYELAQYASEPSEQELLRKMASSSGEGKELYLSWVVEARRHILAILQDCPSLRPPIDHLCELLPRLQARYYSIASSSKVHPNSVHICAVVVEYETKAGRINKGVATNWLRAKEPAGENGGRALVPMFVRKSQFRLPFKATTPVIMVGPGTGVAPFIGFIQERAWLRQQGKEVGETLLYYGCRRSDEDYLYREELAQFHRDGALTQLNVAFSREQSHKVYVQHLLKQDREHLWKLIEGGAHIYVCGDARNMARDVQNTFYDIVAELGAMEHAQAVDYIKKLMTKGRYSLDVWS
Experimental: (§1) Using Cytc, MTT or RS as electron acceptors the change in absorbance (550 nm for Cytc and 610 nm for MTT) or emission (570 nm excitation, 585 nm emission for RS) was monitored as a function of time. Cytc and RS concentrations were both close to KM of the given electron acceptor, while MTT and NADPH were in excess amounts. Concentrations were 40 μM Cytc, 10 μM RS, 500 μM MTT and 100 μM NADPH unless otherwise stated. POR activity was extracted from the slope of the linear region of each trace. Michaelis–Menten kinetics and IC50 curves were performed under identical conditions using relevant substrate and ligand concentrations. All measurements were repeated at least three times and subsequently normalized to DMSO control measurements. […] Fluorescence intensities of resorufin in the presence of rifampicin were corrected according to a linear calibration curve (see Supplementary Fig. 7). Given that point-mutations in human POR can lead to altered specificity towards CYP isoforms[4],[19], we tested whether small-molecule ligands can bias the specificity of human POR to reduce diverse electron acceptors. […] (MTT)[32] (Fig. 2A). Each of the assays relies on spectral changes of the electron acceptor upon reduction by POR and thus directly reports on POR activity towards reducing the specific redox partner (see Supplementary Methods for details). Being comparative these assays exclude artefacts that may originate from potential FMN loss. […] POR plays an omnipotent role as an electron donor to microsomal CYPs in all eukaryotes and serves as a key metabolic hub in plants as well as humans. To test whether the effect of small-molecule ligand binding to POR is an omnipotent phenomenon underlying the regulation of POR in organisms from different kingdoms, we performed binding assays based on intrinsic fluorescence quenching and dose-response experiments on POR2b from the crop plant Sorghum bicolor (SbPOR2b) in proteoliposomes (Fig. 3A, B, Supplementary Fig. 6 and Supplementary Table 3).

[2] = target: T2, SbPOR2b (Sorghum bicolor, UniProt C5YJG8); test: cytochrome c reduction, absorbance […] nm, Hill fit; format: biochemical
T2 construct: gene CPR; full-length, expressed in E. coli NiCo21(DE3) from pET52b, purified on 2',5'-ADP Sepharose and Q-sepharose, in DLPC/DLPG proteoliposomes; mutant in lipid nanodiscs

[3] = target: T2, SbPOR2b; test: resazurin reduction, fluorescence, Hill fit; format: biochemical
Description: resazurin reduction, fluorescence, Hill fit on SbPOR2b | activity decrease in Cytc reduction and increase in RS reduction

[4] = in vitro; conditions: human, nci-h295r cells
Description: We tested the efficiency of the three ligands to elicit a physiological response on steroidogenic CYP activities in cells (Fig. 5A, see Supplementary Methods, Supplementary Fig. 14 and Supplementary Table 4 for all data and number of biological replicates). The 3 tested ligands are not known to interact directly with CYP17, CYP19 or CYP21, albeit rifampicin and [compound left out] are known to interact with liver CYPs like CYP2B6[27] and CYP3A4[28]. Using a human adrenocortical cell line (NCI-H295R) we tested the effect of ligands on CYP17A1 and CYP21A2[59],[60] activities at 10 and 100 μM concentrations (Fig. 5A). Using radiolabeled substrates, we were able to quantify the steroid hormone production of CYP17A1 and CYP21A2 and its remodeling by POR ligands (see Supplementary Methods for details). […]. Rifampicin caused no significant effect on CYP17A1 activity, but reduced CYP21A2 activity at 100 μM (73 ± 4% of control; see Fig. 5A and Supplementary Fig. 14). […]. […]. […] (91 ± 12% of control). Specific inhibition of CY Fig. 5 Biased metabolism: small-molecule ligands bias steroidogenic CYP-activities in human cells and microsomes. A A human adrenocortical cell line (NCI-H295R) was used to assess the effect of small-molecule ligands on steroidogenic CYP17A1 and CYP21A2 hydroxylase activity, and CYP17A1 lyase activity, using radiolabeled substrates (see Supplementary Methods and Supplementary Table 4). Cell viability was assessed based on MTT reduction. […]. The cells display increased MTT reduction indicating increased reductase activity. No significant effects on CYP17A1 activities are observed. [compound left out] causes a significance increase in CYP17A1 lyase and less significant towards 17-OHase and 21A2 activities, while MTT reduction decreases slightly. [compound left out] causes inhibition of both CYP17A1 and CYP21A2 activities. B Abiraterone was used as a control inhibitor of CYP17A1 and CYP21A2 in H295R cells. C The effect of ligands on CYP19A1 activity was assessed on microsomes from a human choriocarcinoma cell line (JEG3). […]. A, C Error bars represent mean ± SD of 3–4 biological replicates normalized to DMSO controls with propagated error. See Supplementary Fig. 14 for raw data and Supplementary Table 4 for exact value of n for each experimental condition. Note, overlapping data points appear shaded. Level of significance is determined by one-way ANOVA and Tukey’s HSD test correcting for multiple comparisons (*p < 0.05; **p < 0.01; ***p < 0.005; see Supplementary Methods for details). Source data are provided as a Source Data file.

[5] = target: T1, human POR; test: cytochrome c reduction, absorbance […] nm; format: biochemical; conditions: read-out: % of control at 100 μM
[6] = target: T2, SbPOR2b; test: cytochrome c reduction, absorbance […] nm, Hill fit; format: biochemical; remark: listed apart in the source
[7] = target: T2, SbPOR2b; test: biochemical; design: POR proteoliposome reduction of cytochrome c, MTT (absorbance) or resazurin (fluorescence), normalized to DMSO control; conditions: Liposomes=Liposomes, electron acceptor as given
Experimental: as §1

[8] = target: T2, SbPOR2b; test: resazurin reduction, fluorescence, Hill fit; format: biochemical; remark: listed apart in the source
Description: resazurin reduction, fluorescence, Hill fit on SbPOR2b | while marginally reducing the capacity in the RS assay

[9] = read-out: % of control remaining, Cytochrome C=Cytochrome C
[10] = read-out: % of control remaining, Cytochrome C=MTT
[11] = read-out: % of control remaining, Cytochrome C=Resazurin
[12] = Cytochrome C=Cytochrome C, read-out: % of control remaining
[13] = Cytochrome C=Resazurin, read-out: % of control remaining
[14] = Cytochrome C=MTT, read-out: % of control remaining
[15] = Assay=MTT cell viability, DMSO (v/v %)=1, read-out: % viability

T2 sequence (C5YJG8 whole entry): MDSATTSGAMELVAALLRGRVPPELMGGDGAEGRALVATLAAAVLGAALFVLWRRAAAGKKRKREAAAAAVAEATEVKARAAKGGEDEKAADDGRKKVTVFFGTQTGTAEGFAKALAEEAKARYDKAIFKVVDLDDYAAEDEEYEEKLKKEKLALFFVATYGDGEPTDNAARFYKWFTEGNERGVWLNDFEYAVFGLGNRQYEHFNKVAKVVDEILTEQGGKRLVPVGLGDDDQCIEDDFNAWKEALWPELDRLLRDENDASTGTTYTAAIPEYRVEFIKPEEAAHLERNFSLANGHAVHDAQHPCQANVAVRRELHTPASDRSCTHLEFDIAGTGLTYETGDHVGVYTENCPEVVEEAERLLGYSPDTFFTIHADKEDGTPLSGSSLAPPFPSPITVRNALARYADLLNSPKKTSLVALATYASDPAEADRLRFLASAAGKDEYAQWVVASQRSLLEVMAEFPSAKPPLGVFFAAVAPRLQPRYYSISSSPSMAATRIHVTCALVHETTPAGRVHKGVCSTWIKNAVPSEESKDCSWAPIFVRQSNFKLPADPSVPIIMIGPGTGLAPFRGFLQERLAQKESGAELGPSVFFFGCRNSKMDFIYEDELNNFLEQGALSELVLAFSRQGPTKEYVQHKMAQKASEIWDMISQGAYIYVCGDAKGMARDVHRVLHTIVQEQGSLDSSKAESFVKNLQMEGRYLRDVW

SMILES	remaining activity at 10 µM [1, 9] [%]	remaining activity at 100 µM [1, 9] [%]	remaining activity at 10 µM [1, 10] [%]	remaining activity at 10 µM [1, 11] [%]	remaining activity at 100 µM [1, 11] [%]	further results
CCCCc1oc2ccccc2c1C(=O)c1cc(I)c(OCCN(CC)CC)c(I)c1 [Amiodarone]	95.6	106	85.1	102	102	
CN/C(=N\CCSCc1nc[nH]c1C)NC#N [Cimetidine]	110	117	96.9	107	112	
CO[C@@]12[C@H](COC(N)=O)C3=C(C(=O)C(C)=C(N)C3=O)N1C[C@@H]1N[C@@H]12 [Mitomycin C]	101		110	53.7		
CC(C)c1nc(CN(C)C(=O)N[C@H](C(=O)N[C@@H](Cc2ccccc2)C[C@H](O)[C@H](Cc2ccccc2)NC(=O)OCc2cncs2)C(C)C)cs1 [Ritonavir]	108	118	88.4	96.9	95.9	
CC(=O)CC(c1ccccc1)c1c(O)c2ccccc2oc1=O (centres unmarked) [Warfarin]	102		118	96.2		
O=P1(N(CCCl)CCCl)NCCCO1 (centres unmarked) [cyclophosphamide]						IC50 [2]: 228 ± 208 µM; EC50 [3]: 159 ± 136 µM; viability at 10 µM [4]: 87.9%; viability at 100 µM [4]: 81.4%
N#C[C@@H](O[C@@H]1O[C@H](CO)[C@@H](O)[C@H](O)[C@H]1O)c1ccc(O)cc1 [dhurrin]						remaining activity at 100 µM [5]: 48 ± 9%; EC50 [6]: 21 ± 12 µM; viability at 10 µM [4]: 93.6%; viability at 100 µM [4]: 88.1%; remaining activity at 10 µM [7, 12]: 128%; remaining activity at 100 µM [7, 12]: 156%; remaining activity at 100 µM [7, 13]: 236%; remaining activity at 10 µM [1, 14]: 87.7%; remaining activity at 100 µM [1, 14]: 95.9%; remaining activity at 10 µM [1, 13]: 105%; remaining activity at 100 µM [1, 13]: 81.7%
CO[C@H]1/C=C/O[C@@]2(C)Oc3c(C)c(O)c4c(O)c(c(/C=N/N5CCN(C)CC5)c(O)c4c3C2=O)NC(=O)/C(C)=C\C=C\[C@H](C)[C@H](O)[C@@H](C)[C@@H](O)[C@@H](C)[C@H](OC(C)=O)[C@@H]1C [rifampicin]	113		95.7	132	312	remaining activity at 100 µM [5]: 14 ± 5%; IC50 [8]: 18 ± 9 µM; EC50 [6]: 9 ± 8 µM; viability at 10 µM [4, 15]: 94%; viability at 100 µM [4, 15]: 116%; remaining activity at 10 µM [7, 9]: 140%; remaining activity at 100 µM [7, 9]: 179%; remaining activity at 10 µM [7, 11]: 102%; remaining activity at 100 µM [7, 11]: 85%; remaining activity at 100 µM [1, 10]: 122%
